Columns and labels:
Test in all cases: KinomeScan
Format in all cases: binding
Settings in all cases: 1 μM
EPHB6 = target: T1, EPHB6 (Homo sapiens, UniProt O15197)
T1 construct: purchased DiscoverX (KINOMEscan)

[1] = target: T2, ABL1(T315I)-phosphorylated (Homo sapiens, UniProt P00519, T315I)
T2 construct: purchased DiscoverX (KINOMEscan)

TIE2 = target: T3, TIE2 (Homo sapiens, UniProt Q02763)
T3 construct: purchased DiscoverX (KINOMEscan)

FGFR3 = target: T4, FGFR3 (Homo sapiens, UniProt P22607)
T4 construct: purchased DiscoverX (KINOMEscan)

WEE2 = target: T5, WEE2 (Homo sapiens, UniProt P0C1S8)
T5 construct: purchased DiscoverX (KINOMEscan)

[2] = target: T6, ABL1(E255K)-phosphorylated (Homo sapiens, UniProt P00519, E255K)
T6 construct: purchased DiscoverX (KINOMEscan)

HUNK = target: T7, HUNK (Homo sapiens, UniProt P57058)
T7 construct: purchased DiscoverX (KINOMEscan)

CDK4-cyclinD3 = target: T8, CDK4-cyclinD3 (Homo sapiens, UniProt P11802)
T8 construct: purchased DiscoverX (KINOMEscan)

MLK1 = target: T9, MLK1 (Homo sapiens, UniProt P80192)
T9 construct: purchased DiscoverX (KINOMEscan)

CDC2L2 = target: T10, CDC2L2 (Homo sapiens, UniProt Q9UQ88)
T10 construct: purchased DiscoverX (KINOMEscan)

[3] = target: T11, TYK2(JH2domain-pseudokinase) (Homo sapiens, UniProt P29597)
T11 construct: TYK2(JH2domain-pseudokinase); purchased DiscoverX (KINOMEscan)

CDK7 = target: T12, CDK7 (Homo sapiens, UniProt P50613)
T12 construct: purchased DiscoverX (KINOMEscan)

EPHA7 = target: T13, EPHA7 (Homo sapiens, UniProt Q15375)
T13 construct: purchased DiscoverX (KINOMEscan)

OSR1 = target: T14, OSR1 (Homo sapiens, UniProt O95747)
T14 construct: purchased DiscoverX (KINOMEscan)

AKT2 = target: T15, AKT2 (Homo sapiens, UniProt P31751)
T15 construct: purchased DiscoverX (KINOMEscan)

p38-alpha = target: T16, p38-alpha (Homo sapiens, UniProt Q16539)
T16 construct: purchased DiscoverX (KINOMEscan)

FLT3(K663Q) = target: T17, FLT3(K663Q) (Homo sapiens, UniProt P36888, K663Q)
T17 construct: purchased DiscoverX (KINOMEscan)

LCK = target: T18, LCK (Homo sapiens, UniProt P06239)
T18 construct: purchased DiscoverX (KINOMEscan)

MKNK1 = target: T19, MKNK1 (Homo sapiens, UniProt Q9BUB5)
T19 construct: purchased DiscoverX (KINOMEscan)

DLK = target: T20, DLK (Homo sapiens, UniProt Q12852)
T20 construct: purchased DiscoverX (KINOMEscan)

[4] = target: T21, EGFR(L747-E749del, A750P) (Homo sapiens, UniProt P00533, A750P/DEL747-749)
T21 construct: purchased DiscoverX (KINOMEscan)

IRAK3 = target: T22, IRAK3 (Homo sapiens, UniProt Q9Y616)
T22 construct: purchased DiscoverX (KINOMEscan)

TNK1 = target: T23, TNK1 (Homo sapiens, UniProt Q13470)
T23 construct: purchased DiscoverX (KINOMEscan)

BMPR1A = target: T24, BMPR1A (Homo sapiens, UniProt P36894)
T24 construct: purchased DiscoverX (KINOMEscan)

EPHA2 = target: T25, EPHA2 (Homo sapiens, UniProt P29317)
T25 construct: purchased DiscoverX (KINOMEscan)

MYLK2 = target: T26, MYLK2 (Homo sapiens, UniProt Q9H1R3)
T26 construct: purchased DiscoverX (KINOMEscan)

MLCK = target: T27, MLCK (Homo sapiens, UniProt Q32MK0)
T27 construct: purchased DiscoverX (KINOMEscan)

MARK1 = target: T28, MARK1 (Homo sapiens, UniProt Q9P0L2)
T28 construct: purchased DiscoverX (KINOMEscan)

SRC = target: T29, SRC (Homo sapiens, UniProt P12931)
T29 construct: purchased DiscoverX (KINOMEscan)

FLT1 = target: T30, FLT1 (Homo sapiens, UniProt P17948)
T30 construct: purchased DiscoverX (KINOMEscan)

CSF1R = target: T31, CSF1R (Homo sapiens, UniProt P07333)
T31 construct: purchased DiscoverX (KINOMEscan)

NDR2 = target: T32, NDR2 (Homo sapiens, UniProt Q9Y2H1)
T32 construct: purchased DiscoverX (KINOMEscan)
T32 sequence (Q9Y2H1 whole entry): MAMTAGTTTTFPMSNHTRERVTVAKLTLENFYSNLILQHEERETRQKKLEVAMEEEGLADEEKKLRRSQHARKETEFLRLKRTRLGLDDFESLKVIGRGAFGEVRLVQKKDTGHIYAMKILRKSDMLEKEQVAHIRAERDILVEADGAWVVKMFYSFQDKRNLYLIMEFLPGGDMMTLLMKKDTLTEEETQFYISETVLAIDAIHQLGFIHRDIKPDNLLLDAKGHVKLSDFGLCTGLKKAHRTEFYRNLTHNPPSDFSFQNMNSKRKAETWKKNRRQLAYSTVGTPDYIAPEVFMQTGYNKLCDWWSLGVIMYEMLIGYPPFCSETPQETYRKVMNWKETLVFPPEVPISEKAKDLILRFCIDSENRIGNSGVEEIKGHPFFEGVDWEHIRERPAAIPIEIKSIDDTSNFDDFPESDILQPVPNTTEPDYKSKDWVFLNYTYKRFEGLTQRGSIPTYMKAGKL

T23 sequence (Q13470 whole entry): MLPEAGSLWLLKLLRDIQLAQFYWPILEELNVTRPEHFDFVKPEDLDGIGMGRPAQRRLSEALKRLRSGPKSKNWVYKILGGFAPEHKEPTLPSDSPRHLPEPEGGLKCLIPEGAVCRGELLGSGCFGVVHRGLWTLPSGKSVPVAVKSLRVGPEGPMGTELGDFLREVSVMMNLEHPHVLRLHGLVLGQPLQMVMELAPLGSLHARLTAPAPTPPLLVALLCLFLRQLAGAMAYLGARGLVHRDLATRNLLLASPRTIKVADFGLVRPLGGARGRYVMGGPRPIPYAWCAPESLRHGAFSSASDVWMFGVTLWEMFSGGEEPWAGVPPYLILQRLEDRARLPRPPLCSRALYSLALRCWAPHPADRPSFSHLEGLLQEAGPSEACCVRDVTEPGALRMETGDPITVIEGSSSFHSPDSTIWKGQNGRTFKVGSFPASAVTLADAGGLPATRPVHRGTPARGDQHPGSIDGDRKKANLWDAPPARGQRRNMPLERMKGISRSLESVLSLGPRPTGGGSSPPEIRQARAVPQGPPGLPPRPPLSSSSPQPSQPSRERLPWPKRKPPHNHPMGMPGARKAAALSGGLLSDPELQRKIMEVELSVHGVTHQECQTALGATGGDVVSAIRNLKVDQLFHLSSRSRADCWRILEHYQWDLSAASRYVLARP
T30 sequence (P17948 27-1338): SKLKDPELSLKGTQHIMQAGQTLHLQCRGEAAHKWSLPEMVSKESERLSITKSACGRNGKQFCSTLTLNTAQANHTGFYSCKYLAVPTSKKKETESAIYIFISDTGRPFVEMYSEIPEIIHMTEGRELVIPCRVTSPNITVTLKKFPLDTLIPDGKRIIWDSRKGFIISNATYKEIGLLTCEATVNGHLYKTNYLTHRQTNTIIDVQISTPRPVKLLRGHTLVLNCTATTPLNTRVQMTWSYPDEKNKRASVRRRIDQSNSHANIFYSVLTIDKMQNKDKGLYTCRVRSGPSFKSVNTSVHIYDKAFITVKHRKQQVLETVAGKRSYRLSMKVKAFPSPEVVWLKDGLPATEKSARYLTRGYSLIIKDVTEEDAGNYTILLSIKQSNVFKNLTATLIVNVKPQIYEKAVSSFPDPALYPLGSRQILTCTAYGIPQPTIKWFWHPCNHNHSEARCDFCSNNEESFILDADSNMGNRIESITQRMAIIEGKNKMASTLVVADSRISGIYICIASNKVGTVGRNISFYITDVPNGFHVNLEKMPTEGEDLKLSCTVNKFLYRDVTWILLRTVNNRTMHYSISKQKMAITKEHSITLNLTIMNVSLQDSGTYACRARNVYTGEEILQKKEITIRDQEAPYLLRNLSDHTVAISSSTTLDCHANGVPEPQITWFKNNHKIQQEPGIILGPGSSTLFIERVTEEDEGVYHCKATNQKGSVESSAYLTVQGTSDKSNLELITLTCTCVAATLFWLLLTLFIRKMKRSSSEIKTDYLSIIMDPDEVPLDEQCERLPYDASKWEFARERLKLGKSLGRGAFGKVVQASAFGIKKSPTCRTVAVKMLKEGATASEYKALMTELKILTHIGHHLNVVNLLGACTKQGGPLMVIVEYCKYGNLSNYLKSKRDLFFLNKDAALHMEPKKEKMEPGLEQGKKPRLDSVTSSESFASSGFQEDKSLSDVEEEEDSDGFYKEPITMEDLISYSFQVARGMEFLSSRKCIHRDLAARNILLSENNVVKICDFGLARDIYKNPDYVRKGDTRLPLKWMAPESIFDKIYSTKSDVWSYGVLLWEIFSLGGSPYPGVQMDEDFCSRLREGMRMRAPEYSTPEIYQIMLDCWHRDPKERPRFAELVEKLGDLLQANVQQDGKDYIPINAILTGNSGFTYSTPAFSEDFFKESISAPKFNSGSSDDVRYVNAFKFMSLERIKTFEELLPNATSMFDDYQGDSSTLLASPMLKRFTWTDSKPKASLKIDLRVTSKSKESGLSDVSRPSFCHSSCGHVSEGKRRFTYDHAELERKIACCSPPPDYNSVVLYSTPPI
T24 sequence (P36894 24-532): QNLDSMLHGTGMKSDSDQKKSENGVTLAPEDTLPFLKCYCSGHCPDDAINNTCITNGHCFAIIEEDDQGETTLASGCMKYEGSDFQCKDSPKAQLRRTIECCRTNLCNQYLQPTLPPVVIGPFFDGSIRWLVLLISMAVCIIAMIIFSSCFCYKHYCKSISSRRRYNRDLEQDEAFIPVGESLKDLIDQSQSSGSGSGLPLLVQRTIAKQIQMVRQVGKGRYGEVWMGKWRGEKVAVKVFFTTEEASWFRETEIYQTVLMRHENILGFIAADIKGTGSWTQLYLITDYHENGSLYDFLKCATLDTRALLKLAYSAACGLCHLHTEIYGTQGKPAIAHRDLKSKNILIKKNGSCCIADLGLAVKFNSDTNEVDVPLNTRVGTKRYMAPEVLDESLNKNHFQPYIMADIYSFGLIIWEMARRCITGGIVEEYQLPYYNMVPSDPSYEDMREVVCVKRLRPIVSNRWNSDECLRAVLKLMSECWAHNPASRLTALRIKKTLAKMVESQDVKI
T14 sequence (O95747 whole entry): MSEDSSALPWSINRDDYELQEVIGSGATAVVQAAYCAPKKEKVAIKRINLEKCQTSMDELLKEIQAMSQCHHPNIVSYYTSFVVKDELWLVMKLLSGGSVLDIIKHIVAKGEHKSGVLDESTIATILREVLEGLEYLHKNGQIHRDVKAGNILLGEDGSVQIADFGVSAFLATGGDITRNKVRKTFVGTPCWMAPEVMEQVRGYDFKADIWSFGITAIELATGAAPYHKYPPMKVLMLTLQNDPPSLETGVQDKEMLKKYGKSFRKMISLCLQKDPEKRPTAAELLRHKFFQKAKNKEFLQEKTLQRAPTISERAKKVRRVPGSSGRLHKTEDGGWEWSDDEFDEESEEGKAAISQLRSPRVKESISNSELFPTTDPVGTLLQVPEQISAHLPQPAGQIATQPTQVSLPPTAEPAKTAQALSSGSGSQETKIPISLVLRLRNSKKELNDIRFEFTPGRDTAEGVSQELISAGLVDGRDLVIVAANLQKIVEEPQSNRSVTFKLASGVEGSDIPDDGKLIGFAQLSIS
T15 sequence (P31751 whole entry): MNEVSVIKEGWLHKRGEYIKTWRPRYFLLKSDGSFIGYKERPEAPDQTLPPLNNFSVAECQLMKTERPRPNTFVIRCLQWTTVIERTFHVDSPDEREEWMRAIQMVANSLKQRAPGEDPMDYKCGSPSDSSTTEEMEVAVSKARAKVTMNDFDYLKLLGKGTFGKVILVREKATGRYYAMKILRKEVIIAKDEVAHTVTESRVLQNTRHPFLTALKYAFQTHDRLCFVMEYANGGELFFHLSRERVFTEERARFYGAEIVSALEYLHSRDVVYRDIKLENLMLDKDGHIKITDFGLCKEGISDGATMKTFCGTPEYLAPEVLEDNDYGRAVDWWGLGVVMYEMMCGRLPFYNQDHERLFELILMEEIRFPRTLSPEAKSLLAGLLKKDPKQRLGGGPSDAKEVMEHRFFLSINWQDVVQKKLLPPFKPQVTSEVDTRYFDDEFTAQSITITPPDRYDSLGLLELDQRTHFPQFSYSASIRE
T27 sequence (Q32MK0 whole entry): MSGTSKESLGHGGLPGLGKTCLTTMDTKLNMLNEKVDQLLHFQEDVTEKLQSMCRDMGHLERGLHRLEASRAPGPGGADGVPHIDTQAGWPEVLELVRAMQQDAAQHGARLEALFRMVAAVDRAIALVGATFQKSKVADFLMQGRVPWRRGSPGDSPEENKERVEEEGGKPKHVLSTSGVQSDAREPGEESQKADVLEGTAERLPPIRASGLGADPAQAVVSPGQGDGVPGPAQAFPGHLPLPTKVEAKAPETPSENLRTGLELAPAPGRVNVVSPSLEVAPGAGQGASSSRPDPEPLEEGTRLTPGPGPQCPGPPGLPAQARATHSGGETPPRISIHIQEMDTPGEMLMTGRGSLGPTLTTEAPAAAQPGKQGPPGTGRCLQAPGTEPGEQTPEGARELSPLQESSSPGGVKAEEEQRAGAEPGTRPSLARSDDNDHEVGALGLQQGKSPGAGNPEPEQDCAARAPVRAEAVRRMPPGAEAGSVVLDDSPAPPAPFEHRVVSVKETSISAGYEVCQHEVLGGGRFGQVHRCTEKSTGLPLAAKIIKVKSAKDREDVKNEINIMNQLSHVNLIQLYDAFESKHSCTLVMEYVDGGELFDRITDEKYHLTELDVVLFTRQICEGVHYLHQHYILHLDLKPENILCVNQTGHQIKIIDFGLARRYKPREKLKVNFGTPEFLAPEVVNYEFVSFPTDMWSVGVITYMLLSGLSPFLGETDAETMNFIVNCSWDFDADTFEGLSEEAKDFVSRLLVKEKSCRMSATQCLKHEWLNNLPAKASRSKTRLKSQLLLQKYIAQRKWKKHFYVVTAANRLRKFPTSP

With `COc1cc(/C=C2\N=C(N)NC2=O)ccc1O` [Polyandrocarpamine A] the Score (EPHB6) was 97, the Score [1] was 85 and the Score (TIE2) was 98. It also gave a Score (FGFR3) of 100, a Score (WEE2) of 100 and a Score [2] of 100. It also gave a Score (HUNK) of 100, a Score (CDK4-cyclinD3) of 98 and a Score (MLK1) of 100. For the same compound, the Score (CDC2L2) was 100, the Score [3] was 100 and the Score (CDK7) was 100. It also gave a Score (EPHA7) of 100, a Score (OSR1) of 100 and a Score (AKT2) of 100. It also gave a Score (p38-alpha) of 100, a Score (FLT3(K663Q)) of 100 and a Score (LCK) of 100. It also gave a Score (MKNK1) of 63, a Score (DLK) of 100 and a Score [4] of 100. The Score (IRAK3) was 98, the Score (TNK1) was 100 and the Score (BMPR1A) was 100. It also gave a Score (EPHA2) of 100, a Score (MYLK2) of 95 and a Score (MLCK) of 100. The Score (MARK1) was 100, the Score (SRC) was 100 and the Score (FLT1) was 100. The Score (CSF1R) was 87 and the Score (NDR2) was 91.
